Read-outs that look alike come from different tables or passages of the source.
Tests used:
[1] = Caco-2 membrane permeability and efflux test; type: in vitro ADME; settings: human; for Papp A→B at 90 min: Caco-2, A-B; for Papp A→B at 90 min / Papp B→A at 90 min: Caco-2 monolayer, 37° C.; for Papp B→A at 90 min: Caco-2, B-A; for efflux ratio at 90 min: Caco-2, read-out: Papp(B-A)/Papp(A-B)
Method: • 1) Caco-2 cells in the logarithmic growth phase were taken, digested and centrifuged and the cell concentration was adjusted to 4×10^5 cells/mL with MEM complete medium. • 2) 0.5 mL of cell suspension was added to the apical side (AP side) and 1.5 mL MEM cell complete medium was added to the basal side (BL side) of the Transwell plate, respectively. • 3) Culture in a cell constant temperature incubator, change the culture medium every two days, and change the medium every day after one week of culture. • 4) After about 21 days, the resistance value of the formed continuous monolayer film is greater than 100 Ω·cm^2, and the transport experiment is carried out within 3-5 days. • 5) The test compound solution was added to the AP side as the donor solution (Donor), and 1.5 mL of the receiver solution (Receiver) was added to the basal side (BL side). After the culture plate was placed in an incubator at 37° C. for 90 minutes, the AP side was separated from the BL side to terminate the reaction. • 6) Donor or Receiver samples were diluted with 0.4% DMSO in HBSS, and then mixed with acetonitrile. The LC conditions were as follows: mobile phase A: H2O—0.025% FA-1 mM NH4OAC, B: MeOH-0.025% FA-1 mM NH4OAC. Column: ACQUITY UPLC BEH_C18 ([…], 1.7 μm). Flow rate 0.60 mL/min. Gradient: 0.2 min 2% B, 0.6 min 98% B, 1.3 min 98% B, 1.31 min 2% B, 1.8 min stop. • 7) Calculation formula: Papp=(VA/(area×time))×([drug]receiver/([drug]donor)×dilution factor)
where VA is the volume in the receiving chamber, area is the surface area of the membrane, and time is the total transport time in seconds.
Drug molecules cross the single cell layer or via the cell gap from the apical side (AP side) to the basolateral side (BL side) of the Caco-2 monolayer are A to B, and vice versa are B to A. The efflux ratio: Papp(B−A)/Papp(A−B).

BTK protein = target: T1, BTK protein (Homo sapiens, UniProt Q06187); experiment: Western blot assay for degradation of BTK protein in Jeko-1 cells; type: cell-based; settings: 24 hours of drug treatment, GAPDH internal reference
T1 construct: endogenous in cells; host or cells: Jeko-1
T1 sequence (Q06187 whole entry): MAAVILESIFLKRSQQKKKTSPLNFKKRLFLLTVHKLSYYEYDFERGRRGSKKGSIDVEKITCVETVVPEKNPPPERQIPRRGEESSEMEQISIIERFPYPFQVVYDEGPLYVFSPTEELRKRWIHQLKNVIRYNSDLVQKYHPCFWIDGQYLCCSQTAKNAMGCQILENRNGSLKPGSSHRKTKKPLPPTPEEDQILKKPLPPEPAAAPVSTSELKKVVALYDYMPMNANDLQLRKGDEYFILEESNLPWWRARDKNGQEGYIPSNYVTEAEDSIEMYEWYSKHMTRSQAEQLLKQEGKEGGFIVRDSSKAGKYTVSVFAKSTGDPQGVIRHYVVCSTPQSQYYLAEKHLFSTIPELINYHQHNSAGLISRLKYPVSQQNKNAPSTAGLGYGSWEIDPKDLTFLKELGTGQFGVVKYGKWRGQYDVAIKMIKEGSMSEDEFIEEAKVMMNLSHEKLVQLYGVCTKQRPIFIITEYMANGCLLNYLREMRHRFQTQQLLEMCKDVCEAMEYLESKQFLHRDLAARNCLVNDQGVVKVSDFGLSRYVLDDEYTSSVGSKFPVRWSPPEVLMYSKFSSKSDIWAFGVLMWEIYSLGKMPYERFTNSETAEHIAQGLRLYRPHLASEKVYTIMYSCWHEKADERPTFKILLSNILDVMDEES
Method: (§1) The Jeko-1 cell line was cultured in RPMI-1640 medium containing 20% fetal bovine serum in an incubator at 37° C., 5% CO2, and saturated humidity. After the cells grew to the logarithmic growth phase, 5×10^6 cells per well were seeded in a 6-well culture plate, and a DMSO control group and a compound test group were set.
(§2) After 24 hours of drug treatment, the cells were collected, added pre-cooled cell lysate, and lysed on ice for 45 min. After the cells were completely lysed, they were centrifuged, and the supernatant was taken and stored in an ice bath. The protein concentration was determined by Bradford protein concentration assay kit (detergent compatible type), and protein samples were prepared. After the proteins were separated by SDS-PAGE gel electrophoresis, they were transferred to PVDF membranes by wet method and blocked with 5% BSA solution at room temperature for 1 h. Diluted rabbit anti-human BTK and GAPDH were added according to the experimental requirements, and incubated overnight at 4° C. After washing the membrane with TBST, horseradish peroxidase-labeled goat anti-rabbit IgG secondary antibody dilution was added and incubated at room temperature for 1 h. After washing the membrane with TBST, the ECL luminescent solution was added in the gel imager for development and imaging. […]

BTK-C481S mutant protein = target: T2, BTK-C481S mutant protein (Homo sapiens, UniProt Q06187, C481S); experiment: Western blot assay for degradation of BTK-C481S mutant protein in TMD8 (BTK-C481S) cells; type: cell-based; settings: 24 hours of drug treatment, GAPDH internal reference
T2 construct: The TMD8 (BTK-C481S) mutant cell line was cultured in RPMI-1640 medium; endogenous in cells; host or cells: TMD8 (BTK-C481S) mutant cell line
T2 sequence (Q06187 whole entry C481S): as the sequence (Q06187 whole entry) above, with C481S counted along it
Method: as §1, with “TMD8 (BTK-C481S) mutant” for “Jeko-1”
as §2

[2] = test system: TMD8 (BTK-C481S) mutant cells; experiment: Proliferation inhibition of TMD8 (BTK-C481S) mutant cells (CCK-8); type: cell-based; settings: Homo sapiens
Method: Cell plating: TMD8 (BTK-C481S) mutant cells in the logarithmic growth phase were taken, centrifuged, and an appropriate amount of complete medium was added to obtain a single-cell suspension. Cell counting was carried out with a hemocytometer, and a cell suspension of 1.5×10^5 cells/mL was prepared. 100 μL of cell suspension per well was inoculated in a 96-well culture plate, and cultured in a CO2 cell incubator for 24 hours.
The plates were shaken well, placed in a CO2 cell incubator, and continued to incubate for 72h.
CCK-8 detection: 72 hours after administration, 10% CCK-8 solution was added to each well. The plates were placed in a CO2 cell incubator, and incubated for 1-4 hours. The absorbance of each well was measured at 450 nm using a microplate reader.

OCI-LY10 tumor = experiment: Anti-tumor effect in mouse OCI-LY10 tumor model; type: in vivo; settings: SCID mice, OCI-LY10 subcutaneous, oral 100 mg/kg, twice a day, 14 days; rate=[1−(Day14−Day0)/Day0]*100%
Method: OCI-LY10 cells were cultured in RPMI-1640 medium containing 10% fetal bovine serum (FBS). Cells were cultured at 37° C. in a 5% CO2 incubator.
Cell inoculation method to establish tumor SCID mouse subcutaneous transplantation model: tumor cells in logarithmic growth phase were collected, counted and resuspended in RPMI-1640 medium. Matrigel was added at 1:1, and the concentration of cell suspension was adjusted to 4×10^7 cells/ml. Inoculate tumor cells subcutaneously on the right back of SCID mice with a 1 ml syringe, 4×10^6 cells/0.1 ml/mouse
When the average volume of animal tumors is about 140 mm^3, animals with too large tumor, too small tumor, or have irregular tumor shapes were eliminated. The tumor-bearing mice with tumor volumes ranging from 101.34 to 209.86 mm 3 were selected, and were divided into groups by random block method, respectively as model group, compound group (oral 100 mg/kg, twice a day), 7 mice in each group. The day of grouping was Day 0, and administration was started according to the body weight of the animals.
After 14 days of administration, the tumor volume was measured, and the tumor inhibition rate was calculated, and the calculation formula was as follows: Tumor inhibition rate=[1−(Day14 tumor volume−Day0 administration tumor volume)/Day0 administration tumor volume]*100%

[3] = Sample-01, read-out: Papp Sample-01
[4] = Sample-02, read-out: Papp Sample-02
[5] = mean of two samples, read-out: Papp Mean
[6] = TMD8 (BTK-C481S) mutant cells, 72h, CCK-8, read-out: IC50

`Nc1ncnc2c1c(-c1ccc(Oc3ccccc3)cc1)nn2C1CCN(CCCCCOCCOc2ccc3c(c2)CN(C2CCC(=O)NC2=O)C3=O)CC1` (centres unmarked) [Compound 1] showed a Papp A→B at 90 min [1, 3] of 55.5 nm/s, a Papp A→B at 90 min [1, 4] of 51.6 nm/s and a Papp A→B at 90 min [1, 5] of 53.5 nm/s. For the same molecule, the Papp B→A at 90 min [1, 3] was 71.8 nm/s, the Papp B→A at 90 min [1, 4] was 69.9 nm/s and the Papp B→A at 90 min [1, 5] was 70.9 nm/s. The efflux ratio at 90 min [1] was 1.32, the DC50 (BTK protein) was 2.3 nM and the DC50 (BTK-C481S mutant protein) was 9.9 nM. It also gave an IC50 [2, 6] of 7.1 nM and a Tumor inhibition rate (OCI-LY10 tumor) of 175%.
`Nc1ncnc2c1c(-c1ccc(Oc3ccccc3)cc1)nn2C1CCCN(CCOCCOCCOCCOCCNc2cccc3c2C(=O)N(C2CCC(=O)NC2=O)C3=O)C1` (centres unmarked) [Control compound 2] showed a Papp A→B at 90 min [1, 3] of 10.2 nm/s, a Papp A→B at 90 min [1, 4] of 10 nm/s and a Papp A→B at 90 min [1, 5] of 10.1 nm/s. It also gave a Papp B→A at 90 min [1, 3] of 181 nm/s, a Papp B→A at 90 min [1, 4] of 186 nm/s and a Papp B→A at 90 min [1, 5] of 184 nm/s. The efflux ratio at 90 min [1] was 18.1.
In the case of `C=CC(=O)N1CCC[C@@H](n2nc(-c3ccc(Oc4ccccc4)cc3)c3c(N)ncnc32)C1` [Ibrutinib], the IC50 ([2]; TMD8, 72 h) is reported as 125 nM.
Molecule `Nc1ncnc2c1c(-c1ccc(Oc3ccccc3)cc1)nn2C1CCN(CCOCCOCCNc2ccc3c(c2)C(=O)N(C2CCC(=O)NC2=O)C3=O)CC1` (centres unmarked) [Control compound 3] has a Papp A→B at 90 min [1, 3] of 21.4 nm/s, a Papp A→B at 90 min [1, 4] of 21.6 nm/s and a Papp A→B at 90 min [1, 5] of 21.5 nm/s. The Papp B→A at 90 min [1, 3] was 335 nm/s, the Papp B→A at 90 min [1, 4] was 348 nm/s and the Papp B→A at 90 min [1, 5] was 342 nm/s. For the same molecule, the efflux ratio at 90 min [1] was 15.9.
In the case of `Nc1ncnc2c1c(-c1ccc(Oc3ccccc3)cc1)nn2C1CCN(CCOCCOCCNc2ccc3c(c2)CN(C2CCC(=O)NC2=O)C3=O)CC1` (centres unmarked) [Control compound 1], the Papp A→B at 90 min [1, 3] is reported as 10.7 nm/s, the Papp A→B at 90 min [1, 4] is reported as 10.4 nm/s and the Papp A→B at 90 min [1, 5] is reported as 10.5 nm/s. For the same molecule, the Papp B→A at 90 min [1, 3] was 302 nm/s, the Papp B→A at 90 min [1, 4] was 394 nm/s and the Papp B→A at 90 min [1, 5] was 348 nm/s. It also gave an efflux ratio at 90 min [1] of 33.
With `Nc1ncnc2c1c(-c1ccc(Oc3ccccc3)cc1)nn2C1CCN(CCOCCCCCOc2ccc3c(c2)CN(C2CCC(=O)NC2=O)C3=O)CC1` (centres unmarked) [Compound 2] the Papp A→B at 90 min [1, 3] was 23.7 nm/s, the Papp A→B at 90 min [1, 4] was 22.6 nm/s and the Papp A→B at 90 min [1, 5] was 23.2 nm/s. It also gave a Papp B→A at 90 min [1, 3] of 27.3 nm/s, a Papp B→A at 90 min [1, 4] of 27.5 nm/s and a Papp B→A at 90 min [1, 5] of 27.4 nm/s. The efflux ratio at 90 min [1] was 1.18, the DC50 (BTK protein) was 1.5 nM and the DC50 (BTK-C481S mutant protein) was 3.1 nM. For the same molecule, the IC50 [2, 6] was 17.7 nM and the Tumor inhibition rate (OCI-LY10 tumor) was 189%.

Reference: patent US12624042B2, “Compound for targeted degradation of BTK and anti-tumour use thereof” (SHANGHAI MEIZER PHARMACEUTICALS CO., LTD., priority 2020, dated 2026)
